{"source": "patent US20250177478A1", "about": "“G ALPHA Q/11 INHIBITORS FOR USE AS AN ANALGESIC” (University of Florida Research Foundation, Incorporated, priority 2022, published 2025)", "key": {"DRG nociceptors": {"test_system": "DRG nociceptors", "test": "Whole cell patch-clamp recordings of acutely dissociated DRG nociceptors", "type": "cell-based, mouse", "method": "F. Acutely dissociated dorsal root ganglion (DRG) Preparation. Male or female mice between 1 and 2 months of age were used for acute DRG isolations. […] Dissociated DRG cultures were prepared as previously described (Perner C et al. “Protocol for dissection and culture of murine dorsal root ganglia neurons to study neuropeptide release.” STAR Protoc (2021) 2:100333). Briefly, DRGs were dissected from 1- to 2-month-old mice in Hank's buffered salt solution (HBSS) and digested with Collagenase A and Dispase II for 25 min at 37° C., centrifuged at 200×g for 5 min, and washed with Dulbecco's modified Eagle's medium (DMEM) supplemented with 10% fetal bovine serum (FBS), glutamate, sodium pyruvate, 1% penicillin and 1% streptomycin. DRGs were then triturated in Neurobasal A medium supplemented with 10% FBS, 1% penicillin, 1% streptomycin, 1% GlutaMAX, 2% B27, […] nerve growth factor (NGF) and […] glial cell line-derived neurotrophic factor (GDNF). After plating on laminin-coated coverslips, cells were incubated at 37° C. overnight. Experiments were performed the day after dissection.\nG. Whole cell patch-clamp recordings. Nociceptors were identified by physiological classification protocols (Petruska J C et al. “Subclassified acutely dissociated cells of rat DRG: histochemistry and patterns of capsaicin-, proton-, and ATP-activated currents.” J Neurophysiol (2000) 84:2365-2379) summarized in FIG. 10 and further by responsivity to morphine. Each experimental group consisted of 12-18 DRG recordings from three animals, 1-2 of which were female. Hyperpolarization-activated current (Ih) and kinetics of resulting transient currents were determined by stepping membrane potential from −60 to −110 mV for 500 ms in 10 mV increments (FIG. 10A). Outward currents were identified by first preconditioning membrane potential at −100 mV for 500 ms and then stepping from −60 to 40 mV in 20 mV increments for 200 ms (FIG. 10D). Inward current dynamics were determined by preconditioning at −80 mV and then stepping from −60 to 40 mV in 10 mV increments (FIG. 10G). A 6-s, 0- to 2-nA continuous ramp stimulation protocol was used to determine rheobase. Membrane capacitance (Cm), series resistance (Rs) and input resistance (Ri) were tested with a hyperpolarizing 10 mV pulse of 10 ms duration initially and at a 30 s interval throughout the recording period. Cells were recorded only if initial series resistance was ≤20 MΩ and excluded if Rs varied >20% while recording. Offline analysis identified clustering of a population n=30 with uniform morphine responsivity that was selected for further analysis, with basal parameters #SEM: Cm=27.31±4.72 pF, Ri=492±19.29 MQ, Ih=7.10±2.45 pA·pF−1, IA tau=8.39±0.41 ms and action potential (AP) tau=1.22±0.08 ms. K+ internal was used for all recordings, containing: 6 mM NaCl, 4 mM NaOH, 130 mM K-gluconate, 11 mM ethylene glycol-bis(β-aminoethyl ether)tetraacetic acid (EGTA), 1 mM CaCl2, 1 mM MgCl2, 10 mM N-(2-hydroxyethyl)piperazine-N′-(2-ethanesulphonic acid) (HEPES), 2 mM Na2ATP, and 0.2 mM Na2GTP 0.2, adjusted to pH 7.3-7.4 with HCl. External artificial CSF contained: 125 mM NaCl, 3 mM KCl, 1.2 mM KH2PO4, 1.2 mM MgSO4, 25 mM NaHCO3, 2 mM CaCl2), and 10 mM dextrose 10, adjusted to pH 7.3-7.4 with HCl."}, "C57BL/6 mice": {"test_system": "C57BL/6 mice", "excerpt": "A. Experimental animals. C57BL/6 mice (6-8 weeks old) of both sexes were used. Mice were housed in groups on a 12-h light-dark cycle (6:00 am light cycle; 6:00 pm dark cycle) with food (Teklad Global 16% protein rodent diets; Envigo Inc., WI, USA) and water available ad libitum. Animal groups were compiled to ensure minimization of factors (e.g., weight, sex, and health). Mice were within 20-28 g in weight at start of all studies. All tested groups contained a control group and consisted of male and female mice. Males and females were tested on the same day but at different times so that they were not in the room at the same time. All the experiments were tested during the light cycle between 8:00 am and 3:00 pm to avoid any long-term disruption of sleep cycles. Mice were transferred to the behavioural testing room at least 45 min before the first test to acclimatize. Following behavioural evaluation, animals were killed by CO2 inhalation, followed by cervical dislocation and postmortem decapitation.\nB. Drug treatments. […] The dose of YM-254890 for subcutaneous injection was taken from previous published studies. The dose of morphine selected for subcutaneous administration (2.5, 5 and 10 mg kg-1) is commonly used in mouse analgesia. For the combined administration of morphine and YM-254890 on thermal anti-nociception, YM-254890 was administered 10 min before the morphine. The latency of response was measured before injection of drugs (baseline latency response) and at different time intervals (post-treatment latency response) after drugs injection.\nC. Intrathecal injections. Intrathecal (i.t.) administration was performed following the method described previously (Hylden J L et al. “Intrathecal morphine in mice: a new technique.” Eur J Pharmacol (1980) 67:313-316; Li D et al. “Direct Intrathecal Injection of Recombinant Adeno-associated Viruses in Adult Mice.” J Vis Exp (2019)) with slight modifications. All intrathecal injections were performed using a 25 μL Hamilton syringe with a 30-gauge needle. The injection volume was 5 μL for each mouse. […] Each solution was injected without injection cannulae. Intrathecal injections were made into the L5-L6 intervertebral space of unanesthetized mice. The flick of the tail was considered indicative of a successful i.t. administration."}, "[1]": {"details": "co-application 100 nM YM + 1 μM morphine"}}, "note": "Positions of bridges follow the written chain, without caps; N, C: chain ends. Non-standard residues stand in square brackets, D forms with d. Residues, ends and D or L forms follow the SMILES beside them. Leu(3R-O(AcLeu(3R-OH))) = CC(=O)N[C@H](C(=O)O[C@H](C(C)C)[C@H](N)C(=O)O)[C@H](O)C(C)C; NMeT = CN[C@H](C(=O)O)[C@@H](C)O; dPhLac = O=C(O)[C@H](O)Cc1ccccc1; NMeA = CN[C@@H](C)C(=O)O; NMeDha = C=C(NC)C(=O)O", "data": [{"smiles": "C=C1C(=O)N[C@@H](C)C(=O)N(C)[C@@H](C)C(=O)N[C@@H]([C@H](OC(=O)[C@@H](NC(C)=O)[C@H](O)C(C)C)C(C)C)C(=O)N(C)[C@@H]([C@@H](C)OC)C(=O)O[C@H](C)[C@H](NC(C)=O)C(=O)O[C@H](Cc2ccccc2)C(=O)N1C", "note": "[YM-254890] (Ac-T[dPhLac][NMeDha]A[NMeA][Leu(3R-O(AcLeu(3R-OH)))][NMeT](Me); ester 1-C)", "values": [{"measurement": "inhibition of substance P induced excitation of DRG nociceptors", "setting": "DRG nociceptors; 10 nM substance P followed by 10 nM SP and 100 nM YM", "value": "inhibit the effects of substance P"}, {"measurement": "magnitude of decrease in excitability relative to morphine", "setting": "DRG nociceptors; 100 nM YM versus 1 μM morphine", "value": "smaller as compared with morphine"}, {"measurement": "rapidly inactivating A-type potassium currents (IA), voltage-step protocol 2", "setting": "DRG nociceptors; YM-254890 or morphine alone", "value": "significantly inhibited IA"}, {"measurement": "AP amplitude, voltage-step protocol", "setting": "DRG nociceptors; bath application alone: 100 nM YM or 1 μM morphine", "value": "moderately reduced AP amplitude"}, {"measurement": "excitability of DRG nociceptors (rheobase, 0-2 nA ramp stimulation)", "setting": "DRG nociceptors; bath application alone: 1 μM morphine or 100 nM YM", "value": "significant decrease in the excitability"}, {"measurement": "action potential firing in 0-2 nA ramp protocol", "setting": "DRG nociceptors; [1]", "value": "prevented action potential firing throughout the 2-nA ramp protocol in all recordings"}, {"measurement": "evoked AP responses, voltage-step protocol", "setting": "DRG nociceptors; [1]", "value": "largely prevented evoked AP responses"}, {"measurement": "evoked AP responses, voltage-step protocol", "setting": "DRG nociceptors; co-application 100 nM YM + 1 μM morphine, listed as YM", "value": "greatly inhibited evoked depolarization"}, {"measurement": "rapidly inactivating A-type potassium currents (IA), voltage-step protocol 2", "setting": "DRG nociceptors; coadministration of YM-254890 and morphine", "value": "nearly eliminated IA"}, {"measurement": "effect on morphine locomotor-sensitizing effect, open-field test", "setting": "C57BL/6 mice; YM-254890 0.5 mg/kg s.c. 10 min before morphine 5 mg/kg s.c., 120 min", "value": "completely suppressed these effects"}, {"measurement": "locomotion in open-field test", "setting": "C57BL/6 mice; YM-254890 0.5 mg/kg s.c. with morphine 5 mg/kg s.c., comparable with YM-254890 alone", "value": "substantial decrease in locomotion"}, {"measurement": "motor activity in open-field test after intrathecal delivery", "setting": "C57BL/6 mice; YM-254890 intrathecal 3.0 nmol, alone or in combination with morphine 2.5 mg/kg s.c., 120 min", "value": "no significant changes in motor activity"}]}]}
